Tested on: gene expression in MC38 tumors
Test: RNA-Seq gene expression in MC38 tumors, Day 10
Format: in vivo, mouse
Experimental: On Day 10 spleens and tumors were collected and weighed from all animals in Groups 7 through 12 and weighed prior to processing. Tissues from four animals in each group were processed to single cell suspensions for flow cytometry analysis at CRL-NC (described below). Tissues from the remaining six animals in each group were preserved in RNAlater, stored at −80° C.
Tumors and spleens were dissected on the appropriate day of the study and were weighed and immediately placed in RNAlater Stabilizing Reagent to preserve the tissue and stored overnight at 4 deg C. The following day, the samples were removed from RNA later and snap frozen and placed at −80 deg C.
Unless otherwise indicated, everything was done on ice and the materials were prechilled on ice. The tissues were homogenized in TRIzol in Precellys tissue grinding tubes. After homogenization, the TRIzol solutions were transferred to 1.5 ml tubes and spun for 5 min at 12,000×g to eliminate the insoluble material. The TRIzol solutions were then transferred to Phasemaker tubes. Chloroform was added, the tubes were capped, and shaken vigorously for 15 seconds. The samples were then incubated at room temperature for 2-15 minutes and centrifuged at 12,000×g for 5 minutes. The upper, aqueous phase was then transferred to a new tube and an equal volume of 70% ethanol was added and it was vortexed. The liquid was then transferred to Qiagen RNeasy columns and centrifuged at 8000×g. DNAse was added to each tube to eliminate any residual DNA. The columns were then washed and eluted as directed by the kit. The RNA concentrations were determined using a Qubit.
Libraries were prepared for sequencing by using the Mouse Transcriptome Ion AmpliSeq Library Preparation on the Ion Chef System as directed by the manufacturer. Eight samples of purified RNA and 8 unique IonCode molecular barcodes were added to a 96 well plate and were prepared at a time. After the libraries were prepared, they were templated and loaded onto an Ion Torrent 540 chip using the Ion 540 Chef Kit from ThermoFisher. The 540 chips were then loaded into a Gene Studio S5 sequencer and sequenced.
Raw sequencing data was processed by Torrent Suite (v5.8.0) software that came with the Gene Studio sequencer (ThermoFisher). For each sample, this program summarized gene expression in a CHP file. The CHP files were then loaded into the Transcriptome Analysis Console (TAC) program (ThermoFisher).

[1] = T cell signaling gene, MC38 tumors Day 10 RNA-Seq, lucitanib 10 mg/kg po, SEQ ID NO. 2 3 mg/kg sc
[2] = Type I/II interferon pathway gene, MC38 tumors Day 10 RNA-Seq, lucitanib 10 mg/kg po, SEQ ID NO. 2 3 mg/kg sc
[3] = antigen presentation gene, MC38 tumors Day 10 RNA-Seq, lucitanib 10 mg/kg po, SEQ ID NO. 2 3 mg/kg sc

CNC(=O)c1cccc2cc(Oc3ccnc4cc(OCC5(N)CC5)c(OC)cc34)ccc12 [Lucitanib, 6-(7-((1-Aminocyclopropyl)-methoxy)-6-methoxyquinolin-4-yloxy)-N-methyl-1-naphthamide]
Cd3e mean expression value relative to vehicle group [1]: 2.49 | Cd4 mean expression value relative to vehicle group [1]: 2.67 | Cd8a mean expression value relative to vehicle group [1]: 2.03 | Cd8b1 mean expression value relative to vehicle group [1]: 3.57 | Cd28 mean expression value relative to vehicle group [1]: 5.49 | Cd247 mean expression value relative to vehicle group [1]: 1.44 | Cd3d mean expression value relative to vehicle group [1]: 3.14 | Ctla4 mean expression value relative to vehicle group [1]: 4.10 | H2-Aa mean expression value relative to vehicle group [1]: 1.59 | H2-Ab1 mean expression value relative to vehicle group [1]: 1.12 | H2-Eb1 mean expression value relative to vehicle group [1]: 1.66 | Icos mean expression value relative to vehicle group [1]: 6.03 | Ifng mean expression value relative to vehicle group [1]: 2.74 | Il2 mean expression value relative to vehicle group [1]: 0.60 | Lck mean expression value relative to vehicle group [1]: 1.36 | Lcp2 mean expression value relative to vehicle group [1]: 0.40 | Nfatc2 mean expression value relative to vehicle group [1]: 0.34 | Pdcd1 mean expression value relative to vehicle group [1]: 0.75 | Ptpn22 mean expression value relative to vehicle group [1]: 1.16 | Ptprc mean expression value relative to vehicle group [1]: 2.25 | Zap70 mean expression value relative to vehicle group [1]: 1.46 | B2m mean expression value relative to vehicle group [2]: 0.32 | Bst2 mean expression value relative to vehicle group [2]: 0.75 | Cd44 mean expression value relative to vehicle group [2]: −0.26 | Ciita mean expression value relative to vehicle group [2]: 0.62 | Fcgr1 mean expression value relative to vehicle group [2]: 1.56 | Gm10499 mean expression value relative to vehicle group [2]: 0.04 | H2-Aa mean expression value relative to vehicle group [2]: 1.59 | H2-Ab1 mean expression value relative to vehicle group [2]: 1.12 | H2-Eb1 mean expression value relative to vehicle group [2]: 1.66 | H2-K1 mean expression value relative to vehicle group [2]: 0.26 | H2-Q10 mean expression value relative to vehicle group [2]: 0.32 | Icam1 mean expression value relative to vehicle group [2]: 0.43 | Ifi35 mean expression value relative to vehicle group [2]: 0.62 | Ifit2 mean expression value relative to vehicle group [2]: 0.25 | Ifitm1 mean expression value relative to vehicle group [2]: 0.38 | Ifna2 mean expression value relative to vehicle group [2]: 0 | Ifnar1 mean expression value relative to vehicle group [2]: −0.01 | Ifnar2 mean expression value relative to vehicle group [2]: 0.39 | Ifnb1 mean expression value relative to vehicle group [2]: 0.12 | Ifng mean expression value relative to vehicle group [2]: 2.74 | Ifngr1 mean expression value relative to vehicle group [2]: 0.84 | Irf1 mean expression value relative to vehicle group [2]: 0.3 | Irf4 mean expression value relative to vehicle group [2]: 1.23 | Irf5 mean expression value relative to vehicle group [2]: 0.02 | Irf8 mean expression value relative to vehicle group [2]: 0.38 | Mx1 mean expression value relative to vehicle group [2]: 1.14 | Ncam1 mean expression value relative to vehicle group [2]: 0.14 | Pml mean expression value relative to vehicle group [2]: 0.19 | Ptpn6 mean expression value relative to vehicle group [2]: 0.25 | Socs3 mean expression value relative to vehicle group [2]: −0.24 | Tyk2 mean expression value relative to vehicle group [2]: −0.16 | Vcam1 mean expression value relative to vehicle group [2]: 0.52 | B2m mean expression value relative to vehicle group [3]: 0.32 | Btk mean expression value relative to vehicle group [3]: 0.42 | Cd14 mean expression value relative to vehicle group [3]: 0.26 | Cd36 mean expression value relative to vehicle group [3]: 4.37 | Cd74 mean expression value relative to vehicle group [3]: 1.18 | Ctsc mean expression value relative to vehicle group [3]: 0.36 | Ctss mean expression value relative to vehicle group [3]: 2.29 | Cybb mean expression value relative to vehicle group [3]: 1.66 | Fcgr1 mean expression value relative to vehicle group [3]: 1.56 | H2-Aa mean expression value relative to vehicle group [3]: 1.59 | H2-Ab1 mean expression value relative to vehicle group [3]: 1.12 | H2-DMa mean expression value relative to vehicle group [3]: 1.18 | H2-DMb2 mean expression value relative to vehicle group [3]: 0.84 | H2-Ea-ps mean expression value relative to vehicle group [3]: 0 | H2-Eb1 mean expression value relative to vehicle group [3]: 1.66 | H2-K1 mean expression value relative to vehicle group [3]: 0.26 | H2-Ob mean expression value relative to vehicle group [3]: 2.19 | H2-Q10 mean expression value relative to vehicle group [3]: 0.32 | Ly96 mean expression value relative to vehicle group [3]: 0.58 | Ncf4 mean expression value relative to vehicle group [3]: 0.62 | Psmb9 mean expression value relative to vehicle group [3]: 0.6 | Tap1 mean expression value relative to vehicle group [3]: 0.51 | Tlr1 mean expression value relative to vehicle group [3]: 0.51 | Tlr2 mean expression value relative to vehicle group [3]: 0.12 | Tlr4 mean expression value relative to vehicle group [3]: 1.1 | Esm1 expression, a target of VEGF signaling (tumors): decrease | expression of genes associated with cytotoxic immune cell function, T cell activation, and antigen presentation (tumors): Increased expression

Reference: patent publication US20210338656A1, “IMMUNOSTIMULATORY AGENTS IN COMBINATION WITH ANGIOGENESIS INHIBITORS” (Alkermes Pharma Ireland Limited, priority 2020, published 2021)
